Data from US7446079B2, “Perfumes for rinse-off systems” (Givaudan Fragrances Corporation, priority 2005, dated 2008).
“And” between values parts separate entries of the source, which are not always exact repeats. Identical values can stand only once. Like-named read-outs stand apart in the source and are kept apart here.

What was measured:
[1] = GC-MS headspace release profile of Tropical Fruit perfume in shampoo, 1/100 dilution in water; type: physicochemical
Description: A 10 gram sample of formulation and fragrance was added to an empty 1000 ml pyrex beaker. This beaker was then filled with 1000 ml of 120 F tap water. Beaker with diluted shampoo sample was then immediately placed into a semi-enclosed plexiglass chamber.
Headspace Sampling: Once beaker was placed into chamber a Carboxan SPME field fiber was held at the top-side opening of the chamber over the beaker containing the sample. […] […] Top of plexiglass chamber was held open for entire 5 minutes of headspace sampling.

[2] = in water, cited from earlier work; for exp ODT (ppb) water: experimental values from the Booleans database

Structure (SMILES)	GC Abundance ([1]; headspace at 20 seconds)	GC Abundance ([1]; headspace at 30 seconds)	GC Abundance ([1]; headspace at 40 seconds)	GC Abundance ([1]; headspace at 50 seconds)	ODT (ppb) ([2]; Table 9)	ODT (ppb) ([2]; Table 11)	ODT (ppb) ([2]; Table 13)	also measured
C=CC(C)(O)CCC=C(C)CC (mixture of isomers) [ETHYL LINALOOL]	5000	10000	10000	10000				
CC=Cc1ccc(O)c(OC)c1 [1-Hydroxy-2-methoxy-4-propenylbenzene]								exp ODT (ppb) water [2]: 30-40 ppb
CCCCCCCC=O [1-Octanal]								exp ODT (ppb) water [2]: 30 ppb
COc1cc(C=O)ccc1O [4-Hydroxy-3-methoxybenzaldehyde]								exp ODT (ppb) water [2]: 25-58 ppb and 20-200 ppb
Cc1ccc(C(C)C)c(O)c1 [5-Methyl-2-isopropylphenol]								exp ODT (ppb) water [2]: 400 ppb
CC(C)=CCCC(C)CCCC(C)C=O (stereo not shown) [ADOXAL, 2,6,10-Trimethyl-9-undecenal]			300	3000				
CCCCCC1CCC(=O)O1 (stereo not shown) [ALDEHYDE C-18]	2000	2000	4000	4000				
C=CCOC(=O)CCCCC [ALLYL CAPROATE]					less than 50 ppb	less than 50 ppb	less than 50 ppb	
C=CCOC(=O)CCC1CCCCC1 [ALLYL CYCLOHEXYL PROPIONATE]			7000	10000	less than 50 ppb	less than 50 ppb	less than 50 ppb	
C=CCOC(=O)CCCCCC [ALLYL HEPTOATE]	4000	10000	12000	12000				
CC1(C)CCC[C@]2(C)[C@H]3CCO[C@]3(C)CC[C@@H]12 [AMBROXAN]				1000				
CC/C(=C\CC1CC=C(C)C1(C)C)CO (stereo not shown) [BACDANOL]			100	5000				
CC(=O)OCc1ccccc1 [BENZYL ACETATE]	12000	17000	18000	18000				
OCc1ccccc1 [BENZYL ALCOHOL]			50	100				
CCC(=O)OCc1ccccc1 [BENZYL PROPIONATE]	2000	6000	6000	6000				
CCCCOC(C)=O [Butyl acetate]								exp ODT (ppb) water [2]: 44-88 ppb
Cc1ccc2c(c1)OCC(=O)CO2 [CALONE]				1000				
CC/C=C\CCO [CIS-3-HEXEN-1-OL]	14000	14000	14000	14000				
CC/C=C\CCOC(C)=O [CIS-3-HEXENYL ACETATE]	5000	14000	14000	14000	less than 50 ppb	less than 50 ppb	less than 50 ppb	
CC/C=C\CCOC(=O)c1ccccc1O [CIS-3-HEXENYL SALICYLATE]					less than 50 ppb	less than 50 ppb	less than 50 ppb	
CC(C)=CCCC(C)CCO (stereo not shown) [CITRONELLOL AJ, FCC, CITRONELLOL]	7000	7000	7000	7000				
CC(C)=CCCC(C)CC#N (stereo not shown) [CITRONELLYL NITRILE]					less than 50 ppb	less than 50 ppb	less than 50 ppb	
C=CCOC(=O)COC1CCCCC1 [CYCLOGALBANATE]					less than 50 ppb	less than 50 ppb	less than 50 ppb	
CC=CC(=O)C1=C(C)C=CCC1(C)C [DAMASCENONE, 1-(2,6,6-Trimethylcyclohexa-1,3-dienyl)-2-buten-1-one]				1000				exp ODT (ppb) water [2]: 0.002 ppb
CCC(C)(O)CCC=C(C)C (stereo not shown) [DIHYDROLINALOOL]	3000	3000	3000	3000				
C=CC(C)CCCC(C)(C)O (stereo not shown) [DIHYDROMYRCENOL]	15000	15000	15000	15000				GC Abundance ([1]; headspace at 10 seconds): 500
CC(=O)OC(C)(C)Cc1ccccc1 [DIMETHYL BENZYL CARBINYL ACETATE]		2000	8000	8000				
CC1=CCC(/C=C\C(C)C(C)O)C1(C)C (stereo not shown) [EBANOL]					less than 50 ppb	less than 50 ppb	less than 50 ppb	
CCOC(=O)CC(C)=O [ETHYL ACETOACETATE]					less than 50 ppb	less than 50 ppb	less than 50 ppb	
CCCC(=O)OCC [ETHYL BUTYRATE]	2800	2800	2000	800	less than 50 ppb	less than 50 ppb	less than 50 ppb	GC Abundance ([1]; headspace at 10 seconds): 2800; exp ODT (ppb) water [2]: 1 ppb
